Measurements taken from patent US7157596B2, “Inhibitors of serine protease activity of matriptase or MTSP1” (Dendreon Corporation, priority 2000, dated 2007).

Key:
Type in all cases: biochemical
[1] = target: T1, recombinant serine protease domain of matriptase or MTSP1 (rMAP) (Homo sapiens, UniProt Q9Y5Y6); experiment: Amidolytic assay for inhibition of serine protease activity of matriptase or MTSP1 (rMAP); conditions: 30 min preincubation of compound and rMAP; substrate S-2765
T1 construct: host or cells: Pichia pastoris SMD1168 / pPIC9K-MTSP1
T1 sequence (Q9Y5Y6 615-855): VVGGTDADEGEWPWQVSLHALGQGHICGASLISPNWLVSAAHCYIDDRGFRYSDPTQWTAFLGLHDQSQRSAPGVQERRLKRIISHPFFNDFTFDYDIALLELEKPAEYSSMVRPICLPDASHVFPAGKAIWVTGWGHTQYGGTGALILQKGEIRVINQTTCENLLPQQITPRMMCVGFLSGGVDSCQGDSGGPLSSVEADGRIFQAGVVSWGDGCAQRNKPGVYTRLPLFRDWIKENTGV
Protocol: The ability of the compounds of the present invention to act as inhibitors of rMAP catalytic activity was assessed by determining the inhibitor-induced inhibition of amidolytic activity by the MAP, as measured by IC50 values.
The assay buffer was HBSA (10 mM Hepes, 150 mM sodium chloride, pH 7.4, 0.1% bovine serum albumin). All reagents were from Sigma Chemical Co. (St. Louis, Mo.), unless otherwise indicated.
Two IC50 assays (a) one at either 30-minutes or 60-minutes (a 30-minute or a 60-minute preincubation of test compound and enzyme) and (b) one at 0-minutes (no preincubation of test compound and enzyme) were conducted. […] Following either a 30-minute or a 60-minute incubation at ambient temperature, the assay was initiated by the addition of 50 microliters of the substrate S-2765 (N-α-Benzyloxycarbonyl-D-arginyl-L-glycyl-L-arginine-p-nitroaniline dihydrochloride; DiaPharma Group, Inc.; Franklin, Ohio) to each well, yielding a final assay volume of 200 microliters and a final substrate concentration of 100 μM (about 4-times Km). Before addition to the assay mixture, S-2765 was reconstituted in deionized water and diluted in HBSA. For the IC50 assay at 0 minutes; the same reagents were combined: 50 microliters of HBSA, 50 microliters of the test compound, diluted (covering the identical concentration range) in HBSA (or HBSA alone for uninhibited velocity measurement), and 50 microliters of the substrate S-2765. The assay was initiated by the addition of 50 microliters of rMAP. The final concentrations of all components were identical in both IC50 assays (at 30- or 60- and 0-minute).
The initial velocity of chromogenic substrate hydrolysis was measured in both assays by the change of absorbance at 405 nm using a Thermo Max® Kinetic Microplate Reader (Molecular Devices) over a 5 minute period, in which less than 5% of the added substrate was utilized. The concentration of added inhibitor, which caused a 50% decrease in the initial rate of hydrolysis was defined as the respective IC50 value in each of the two assays (30- or 60-minutes and 0-minute).

Factor Xa = target: T2, Factor Xa (Homo sapiens, UniProt P00742); experiment: In vitro enzyme assay for specificity: Factor Xa; conditions: 30 min preincubation; substrate S-2765; read-out: FXa IC50 30 Min
T2 construct: purchased Enzyme Research Laboratories, Inc. (South Bend, Ind.)
Protocol: (§1) The ability of compounds to act as a selective inhibitor of matriptase activity was assessed by determining the concentration of test-compound which inhibited the activity of matriptase by 50%, (IC50) as described in Example A, and comparing IC50 value for matriptase to that determined for all or some of the following serine proteases: thrombin, recombinant tissue plasminogen activator (rt-PA), plasmin, activated protein C, chymotrypsin, factor Xa and trypsin.
(§2) The buffer used for all assays was HBSA (10 mM HEPES, pH 7.5, 150 mM sodium chloride, 0.1% bovine serum albumin).
(§3) The assay for IC50 determinations was conducted by combining in appropriate wells of a Corning microtiter plate, 50 microliters of HBSA, 50 microliters of the test compound at a specified concentration (covering a broad concentration range) diluted in HBSA (or HBSA alone for V0 (uninhibited velocity) measurement), and 50 microliters of the enzyme diluted in HBSA. Following a 30 minute incubation at ambient temperature, 50 microliters of the substrate at the concentrations specified below were added to the wells, yielding a final total volume of 200 microliters. The initial velocity of chromogenic substrate hydrolysis was measured by the change in absorbance at 405 nm using a Thermo Max® Kinetic Microplate Reader over a 5 minute period in which less than 5% of the added substrate was utilized. The concentration of added inhibitor which caused a 50% decrease in the initial rate of hydrolysis was defined as the IC50 value.
Factor Xa catalytic activity was determined using the chromogenic substrate S-2765 (N-benzyloxycarbonyl-D-arginine-L-glycine-L-arginine-p-nitro aniline), obtained from DiaPharma Group (Franklin, Ohio). All substrates were reconstituted in deionized water prior to use. […] Purified human Factor X was obtained from Enzyme Research Laboratories, Inc. (South Bend, Ind.) and Factor Xa (FXa) was activated and prepared from it as described [Bock, P. E., Craig, P. A., Olson, S. T., and Singh, P. Arch. Biochem. Biophys. 273:375–388 (1989)]. The enzyme was diluted into HBSA prior to assay in which the final concentration was 0.25 nM.

human α-thrombin = target: T3, human α-thrombin (Homo sapiens, UniProt P00734); experiment: In vitro enzyme assay for specificity: Thrombin (fIIa); conditions: 30 min preincubation; substrate Pefachrome t-PA
T3 construct: Purified human α-thrombin was obtained from Enzyme Research Laboratories, Inc; purchased Enzyme Research Laboratories, Inc
Protocol: as §1, §2, §3
Enzyme activity was determined using the chromogenic substrate, Pefachrome t-PA (CH3SO2-D-hexahydrotyrosine-glycyl-L-Arginine-p-nitroaniline, obtained from Pentapharm Ltd.). The substrate was reconstituted in deionized water prior to use. Purified human α-thrombin was obtained from Enzyme Research Laboratories, Inc. The buffer used for all assays was HBSA (10 mM HEPES, pH 7.5, 150 mM sodium chloride, 0.1% bovine serum albumin).
The initial velocity of Pefachrome t-PA hydrolysis was measured by the change in absorbance at 405 nm using a Thermo Max® Kinetic Microplate Reader over a 5 minute period in which less than 5% of the added substrate was utilized. The concentration of added inhibitor which caused a 50% decrease in the initial rate of hydrolysis was defined as the IC50 value.

human plasmin = target: T4, human plasmin (Homo sapiens, UniProt P00747); experiment: In vitro enzyme assay for specificity: Plasmin; conditions: 30 min preincubation; substrate S-2366
T4 construct: Purified human plasmin was obtained from Enzyme Research Laboratories, Inc; purchased Enzyme Research Laboratories, Inc
Protocol: as §1, §2, §3
Plasmin catalytic activity was determined using the chromogenic substrate, S-2366 [L-pyroglutamyl-L-prolyl-L-arginine-p-nitroaniline hydrochloride], which was obtained from DiaPharma group. The substrate was made up in deionized water followed by dilution in HBSA prior to the assay in which the final concentration was 300 micromolar (about 2.5-times Km). Purified human plasmin was obtained from Enzyme Research Laboratories, Inc. The enzyme was diluted into HBSA prior to assay in which the final concentration was 1.0 nM.

[2] = target: T5, bovine pancreatic trypsin (Bos taurus, UniProt P00760); experiment: In vitro enzyme assay for specificity: Trypsin; conditions: 30 min preincubation; substrate S-2222; read-out: Thypsin IC50 30 Min
T5 construct: Purified (3×-crystallized; TRL3) bovine pancreatic trypsin was obtained from Worthington Biochemical Corp; purchased Worthington Biochemical Corp. TRL3; host or cells: bovine pancreas
T5 sequence (P00760 24-246): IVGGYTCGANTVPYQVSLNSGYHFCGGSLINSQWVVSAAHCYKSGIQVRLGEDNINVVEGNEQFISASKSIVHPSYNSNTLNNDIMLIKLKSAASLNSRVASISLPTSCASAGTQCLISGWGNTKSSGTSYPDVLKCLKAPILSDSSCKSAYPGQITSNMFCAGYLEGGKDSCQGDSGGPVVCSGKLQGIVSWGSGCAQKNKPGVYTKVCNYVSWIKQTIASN
Protocol: as §1, §2, §3
Trypsin catalytic activity was determined using the chromogenic substrate, S-2222 (benzoyl-L-isoleucine-L-glutamic acid-[gamma-methyl ester]-L-arginine-p-nitroanilide), which was obtained from DiaPharma Group. […] Purified (3×-crystallized; TRL3) bovine pancreatic trypsin was obtained from Worthington Biochemical Corp. The enzyme was reconstituted in deionized water and diluted into HBSA prior to assay in which the final concentration was 0.5 nM.

T2 sequence (P00742 235-488 limits assumed): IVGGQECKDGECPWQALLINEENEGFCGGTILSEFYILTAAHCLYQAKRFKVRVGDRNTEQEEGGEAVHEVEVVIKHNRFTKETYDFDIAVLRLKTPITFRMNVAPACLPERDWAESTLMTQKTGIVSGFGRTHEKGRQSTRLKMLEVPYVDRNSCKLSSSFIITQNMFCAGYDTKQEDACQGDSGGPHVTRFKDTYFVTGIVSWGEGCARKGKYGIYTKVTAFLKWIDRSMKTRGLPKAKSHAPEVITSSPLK
T2 sequence (P00742 41-179 partner limits assumed): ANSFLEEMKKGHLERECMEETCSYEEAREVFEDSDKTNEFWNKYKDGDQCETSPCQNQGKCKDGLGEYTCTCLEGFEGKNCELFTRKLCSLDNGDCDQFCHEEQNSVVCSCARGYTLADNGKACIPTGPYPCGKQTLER
T4 sequence (P00747 581-810 limits assumed): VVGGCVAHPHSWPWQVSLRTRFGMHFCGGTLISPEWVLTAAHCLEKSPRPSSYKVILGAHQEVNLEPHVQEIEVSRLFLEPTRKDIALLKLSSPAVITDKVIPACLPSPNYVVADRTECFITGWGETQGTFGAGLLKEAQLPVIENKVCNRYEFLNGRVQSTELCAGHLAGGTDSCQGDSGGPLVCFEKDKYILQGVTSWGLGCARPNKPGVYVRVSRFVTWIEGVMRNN
T4 sequence (P00747 97-580 partner limits assumed): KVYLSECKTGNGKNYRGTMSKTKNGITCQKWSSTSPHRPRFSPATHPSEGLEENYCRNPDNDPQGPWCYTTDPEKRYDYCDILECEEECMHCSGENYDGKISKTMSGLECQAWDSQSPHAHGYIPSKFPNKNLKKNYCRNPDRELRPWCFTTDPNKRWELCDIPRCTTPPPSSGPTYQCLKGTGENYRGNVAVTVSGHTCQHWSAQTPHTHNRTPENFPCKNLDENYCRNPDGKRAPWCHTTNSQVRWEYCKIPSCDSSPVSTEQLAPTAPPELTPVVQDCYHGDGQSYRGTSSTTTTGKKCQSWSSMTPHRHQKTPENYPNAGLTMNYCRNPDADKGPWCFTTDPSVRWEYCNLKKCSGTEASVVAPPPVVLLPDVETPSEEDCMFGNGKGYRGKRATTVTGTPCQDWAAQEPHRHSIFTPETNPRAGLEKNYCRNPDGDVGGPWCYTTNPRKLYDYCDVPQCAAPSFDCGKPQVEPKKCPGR

Structure (SMILES) | IC50 [1] [nM] | IC50 (Factor Xa) [nM] | IC50 (human α-thrombin) [nM] | IC50 (human plasmin) [nM] | IC50 [2] [nM]
N=C(N)NCCC[C@@H](C=O)NC(=O)CNC(=O)[C@@](N)(CCC(=O)O)Cc1cccc(C(=N)N)c1 [A] | < 100 | > 2500 | > 2500 | 500 to 2500 | 250 to 500
N=C(N)NCCCC(C=O)NC(=O)CNC(=O)C(CCC(=O)O)(Cc1cccc(C(=N)N)c1)NS(=O)(=O)Cc1ccccc1 (stereo not drawn) [B] | < 100 | > 2500 | 500 to 2500 | > 2500 | > 2500
COC(=O)CCC(N)(Cc1cccc(C(=N)N)c1)C(=O)NCC(=O)NC(C=O)CCCNC(=N)N (stereo not drawn) [C] | < 100 | > 2500 | > 2500 | 500 to 2500 | 500 to 2500
COC(=O)N[C@](CCC(=O)O)(Cc1cccc(C(=N)N)c1)C(=O)NCC(=O)N[C@H](C=O)CCCNC(=N)N [D] | < 100 | > 2500 | > 2500 | > 2500 | > 2500
CC(=O)N[C@](CCC(=O)O)(Cc1cccc(C(=N)N)c1)C(=O)NCC(=O)N[C@H](C=O)CCCNC(=N)N [E] | < 100 | > 2500 | > 2500 | > 2500 | > 2500
COC(=O)N[C@](CCC(=O)O)(Cc1cccc(C(=N)N)c1)C(=O)N[C@@H](C)C(=O)N[C@H](C=O)CCCNC(=N)N [F] | < 100 | > 2500 | > 2500 | 500 to 2500 | 500 to 2500
COC(=O)N[C@](CCC(=O)O)(Cc1cccc(C)c1)C(=O)N[C@@H](C)C(=O)N[C@H](C=O)CCCNC(=N)N [G] | < 100 | > 2500 | > 2500 | 500 to 2500 | < 100
CCNC(=O)N[C@](CCC(=O)O)(Cc1cccc(C(=N)N)c1)C(=O)NCC(=O)N[C@H](C=O)CCCNC(=N)N [H] | < 100 | > 2500 | > 2500 | > 2500 | > 2500
COC(=O)N[C@](CCC(=O)O)(Cc1ccccc1)C(=O)NCC(=O)N[C@H](C=O)CCCNC(=N)N [I] | < 100 | 500 to 2500 | > 2500 | > 2500 | 500 to 2500
CCOC(=O)N[C@](CCC(=O)O)(Cc1cccc(C(=N)N)c1)C(=O)NCC(=O)N[C@H](C=O)CCCNC(=N)N [K] | < 100 | > 2500 | > 2500 | > 2500 | > 2500
CC(C)COC(=O)N[C@](CCC(=O)O)(Cc1cccc(C(=N)N)c1)C(=O)NCC(=O)N[C@H](C=O)CCCNC(=N)N [L] | < 100 | > 2500 | > 2500 | > 2500 | > 2500
N=C(N)NCCC[C@@H](C=O)NC(=O)CNC(=O)[C@@](CCC(=O)O)(Cc1cccc(C(=N)N)c1)NC(=O)Oc1ccccc1 [M] | < 100 | 500 to 2500 | > 2500 | > 2500 | 250 to 500
